We go through two substances from patent US6906033B2, “Protease inhibitor peptides” (SCIOS NOVA, Inc., priority 1995, dated 2005).

A short description of test [1]: Acute porcine cardiopulmonary bypass (CPB) model, postoperative bleeding. It counts as in vivo. The settings on record: pigs. As for the experimental part:
A randomized, double-blinded study using an acute porcine cardiopulmonary bypass (CPB) model was used to investigate the effect of KPI185-1 on postoperative bleeding. Sixteen pigs (55-65 kg) underwent 60 minutes of hypothermic (28° C.) open-chest CPB with 30 minutes of cardioplegic cardiac arrest. Pigs were randomized against a control solution of physiological saline (NS; n=8) or KPI-185 (n=8) groups. During aortic cross-clamping, the tricuspid valve was inspected through an atriotomy which was subsequently repaired. Following reversal of heparin with protamine, dilateral thoracostomy tubes were placed and shed blood collected for 3 hours. Shed blood volume and hemoglobin (Hgb) loss were calculated from total chest tube output and residual intrathoracic blood at time of sacrifice.

The target in a further test is T1, activated factor XII (Homo sapiens, UniProt P00748).
T1 sequence (P00748 373-615 limits assumed): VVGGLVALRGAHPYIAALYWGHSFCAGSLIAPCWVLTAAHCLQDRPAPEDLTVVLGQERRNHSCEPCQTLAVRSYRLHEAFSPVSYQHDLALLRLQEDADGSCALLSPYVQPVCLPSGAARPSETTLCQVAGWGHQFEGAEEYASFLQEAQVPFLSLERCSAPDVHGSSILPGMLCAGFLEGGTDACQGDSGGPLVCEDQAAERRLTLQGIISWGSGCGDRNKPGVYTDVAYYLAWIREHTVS
The settings on record: cited from earlier work.

The conditions of test [2]: CPB; cited from earlier work.
The next test relates to elastase. The settings on record: cited from earlier work.

Regarding “KPI (−4→57; M15A, S17F) DD185: KPI (−4→57) variant with M15A, S17F, found by phage display on kallikrein, expressed in yeast from pDD185”, the “Total Hgb loss” value in test [1] (after CPB, p=0.0005 vs. saline) is 13.59±4.26 gm. Also, the “Thoracostomy drainage Hgb” value in test [1] (at 30 minutes, p=0.004 vs. control) is given as 4.41±1.45 gm/dl; in test [1] (at 60 minutes, p=0.0002 vs. control) it was 5.26±1.04 gm/dl. In test [1] (shed blood collected for 3 hours after CPB plus residual intrathoracic blood, p=0.009 vs. saline), the Total blood loss stood at 245.75 ± 66.24 mL.
Turning to aprotinin, on activated factor XII, the “inhibition of activated factor XII” value was “does not inhibit activated factor XII”. Moreover, in test [2], the “blood loss following bypass” value is listed as “significant reduction in blood loss” and the neutrophil activation entry is given as “does not appear to significantly reduce neutrophil activation”. In the test on elastase, the inhibition of elastase entry is on record as “neither native aprotinin nor native KPI significantly inhibits elastase”.
